Data: US20250145715A1, “B7-H3 TARGETING FUSION PROTEINS AND METHODS OF USE THEREOF” (GT Biopharma, Inc., priority 2021, published 2025)

How the values were obtained:
prostate cancer cells = assay: Cell index over time, killing of prostate cancer cells; type: cell-based, human
From the text: FIG. 21 is a graph illustrating cell index over time.

OVCAR8 cells = assay: IncuCyte real-time tumor-killing assay, OVCAR8; type: cell-based, human; settings: enriched NK cells, E:T 2:1, 30 nM, 48 h; vs controls
Protocol: Healthy donor or ovarian cancer PBMC cells were incubated with ovarian tumor targets at 2:1 E:T ratio for 4 hrs with 30 nM TriKE or control condition. FIG. 30A is a graph illustrating pooled proportion of NK cells from healthy donors expressing CD107a+ (degranulation) against OVCAR8 targets (N=8). FIG. 30B is a graph illustrating pooled proportion of NK cells from healthy donors expressing IFNγ cytokine production against OVCAR8 targets (N=8). FIG. 30C is a graph illustrating pooled proportion of NK cells from healthy donors expressing CD107a+ (degranulation) against OVCAR3 targets (N=4). […] FIG. 30I is a graph illustrating that tumor killing was evaluated using IncuCyte imaging assay. […] The percentage of Live (Nuclight Red+Caspase 3/7−) tumor cells was quantified over a 48-h period and normalized to tumor alone. Readings were obtained every 15 min (representative of four separate experiments). * p<0.05, ** p<0.01, *** p<0.001, and **** p<0.0001.
Tumor killing was evaluated in real-time using the IncuCyte platform. […] Caspase-3/7 green dye (Sartorious, Ann Arbor, MI, USA) was added to pick up dying cells that have not yet lost NuclightRed fluorescence. […] Images from three technical replicates were taken every 15 min for 48 h using a 4× objective lens and then analyzed using IncuCyte™ Basic Software v2018A (Sartorious). […]

Substance	time to killing of prostate cancer cells after initiation of treatment (prostate cancer cells)	killing of OVCAR8 tumor cells over two days (OVCAR8 cells)
B7-H3 TriKE: camelid nanobodies targeting CD16 and B7-H3 joined by IL-15 and two linkers; sequence table equates the name with cam1615B7-H3	within a couple of hours	
cam1615B7-H3: second-generation TriKE: humanized camelid anti-CD16 VHH, human wild-type IL-15, anti-B7-H3 mAb 376.96 scFv; SEQ ID NO:1		robust and rapid tumor killing
